Assay results reported in article PMC9521575, “Multiple tachykinins and their receptors characterized in the gastropod mollusk Pacific abalone: Expression, signaling cascades, and potential role in regulating lipid metabolism” (Frontiers in Endocrinology, 2022).
Each block holds one molecule with its values, some of them ahead of it. Non-standard residues stand in square brackets, D forms with d. Residues, ends and D or L forms follow the SMILES beside them. No end group written: not given here. pGlu = O=C1CC[C@@H](C(=O)O)N1

Columns and labels:
Hdh-TKRL [1] = assay: Ca2+ mobilization assay (aequorin luminescence) in Hdh-TKRL-transfected CHO-K1 cells; format: cell-based, Haliotis discus hannai; details: Hdh-TKRL- and aequorin-expressing CHO-K1 cells; luminescence relative to maximal response at 10^-6 M; n = 3 or 4; read-out: EC50 on intracellular Ca2+ mobilization
Method: (§1) Ca^2+ mobilization assays were performed as described previously ([39]). Briefly, Chinese hamster ovary K1 (CHO-K1) cells were maintained in DMEM-F12 Nutrient Mixture Ham supplemented with 10% FBS (Hyclone) and 1% P/S (Invitrogen) at 37°C in 5% CO2. Cells were grown in a monolayer to 60% confluency in 100 mm dishes (1.5 × 10^6 cells) and transiently transfected with 2 μg of pcDNA3-HA-Hdh-TKR plasmid with 2 μg of a Ca^2+-reporter aequorin plasmid and 2 μg of Gαq plasmid using 18 μL of FuGENE6 transfection reagent (Promega). The cells were washed in assay buffer including phenol red-free DMEM/F-12 with 0.1% bovine serum albumin (BSA) and 1% P/S and collected by brief centrifugation. Probenecid (1.25 mM final concentration, Invitrogen) and coelenterazine (5 μM, Gold Biotech., St. Louis, MO, USA) were added to resuspended CHO-K1 cells in 5 mL of assay buffer and the cells were gently agitated for 2.5 h using a magnetic stirrer at room temperature and shielded from light. […] While stirring gently, 50 μL of the cell suspension was injected into a luminescence microplate reader (Berthold Tech.), and luminescence was recorded for 20 s and for a further 10 s after injection of the assay buffer, including 0.2% Triton X-100 to measure the total Ca^2+ response. […]

Hdh-TKRS [2] = assay: Ca2+ mobilization assay (aequorin luminescence) in Hdh-TKRS-transfected CHO-K1 cells; format: cell-based, Haliotis discus hannai; details: Hdh-TKRS- and aequorin-expressing CHO-K1 cells; luminescence relative to maximal response at 10^-6 M; n = 3 or 4; read-out: EC50 on intracellular Ca2+ mobilization
Method: as §1

Hdh-TKRL [3] = assay: CRE-Luc luciferase reporter assay in Hdh-TKRL-expressing HEK293 cells; format: cell-based, Haliotis discus hannai; details: for EC50: HEK293 cells, peptide treatment 6 h, Supplementary Table 4, read-out: EC50 for Hdh-TKRL activation, CRE-Luc reporter
Method: (§2) Human embryonic kidney 293 (HEK293) cells were maintained in Dulbecco’s modified Eagle medium (DMEM; Gibco, Loughborough, UK) containing 10% fetal bovine serum (FBS; Hyclone, GE Healthcare, Chicago, IL, USA) and 1% penicillin/streptomycin (P/S; Invitrogen) at 37°C in 5% CO2. Sixteen hours before transfection, HEK293 cells were seeded into 24-well plates (5 × 10^4 cells/well). Transfection and luciferase activities were analyzed as previously described ([39]). Briefly, HEK293 cells were transfected with 100 ng of pcDNA3-HA expression plasmid containing Hdh-TKR (pcDNA3-HA-Hdh-TKR) or vehicle pcDNA3-HA plasmid using 0.9 μL of a polyethyleneimine transfection reagent (Sigma-Aldrich, St. Louis, MO, USA), along with 100 ng of a luciferase reporter plasmid containing cAMP response element (CRE-Luc) or serum response element (SRE-Luc), and 100 ng of a pRSV-β-galactosidase expression plasmid as an internal control. At 3 h after transfection, the culture medium was replaced by new DMEM with 1% P/S and 10% FBS, and the HEK293 cells were cultured for a further 30 h and then maintained in DMEM without FBS for 16 h. Finally, the HEK293 cells were treated with synthesized peptides, forskolin (Sigma-Aldrich), 12-O-tetradecanoylphorbol-13-acetate (TPA; Sigma-Aldrich), or an equal volume of peptide-free medium (as vehicle control) for 6 h. Luciferase activity was analyzed using a microplate-luminometer (Berthold Tech., Bad Wildbad, Germany) and normalized to the β-galactosidase activity, detected by absorbance at 405 nm using a microplate reader (Tecan, Mannedorf, Switzerland).

Hdh-TKRL [4] = assay: SRE-Luc luciferase reporter assay in Hdh-TKRL-expressing HEK293 cells; format: cell-based, Haliotis discus hannai; details: for EC50: HEK293 cells, peptide treatment 6 h, Supplementary Table 4, read-out: EC50 for Hdh-TKRL activation, SRE-Luc reporter
Method: as §2

Hdh-TKRS [5] = assay: CRE-Luc luciferase reporter assay in Hdh-TKRS-expressing HEK293 cells; format: cell-based, Haliotis discus hannai; details: for EC50: HEK293 cells, peptide treatment 6 h, Supplementary Table 3, read-out: EC50 for Hdh-TKRS activation, CRE-Luc reporter
Method: as §2

Hdh-TKRS [6] = assay: SRE-Luc luciferase reporter assay in Hdh-TKRS-expressing HEK293 cells; format: cell-based, Haliotis discus hannai; details: for EC50: HEK293 cells, peptide treatment 6 h, Supplementary Table 3, read-out: EC50 for Hdh-TKRS activation, SRE-Luc reporter
Method: as §2

[7] = system: Hdh-TKRL-mediated phosphorylation of ERK1/2; assay: Western blotting of ERK1/2 phosphorylation in Hdh-TKRL-transfected HEK293 cells; format: cell-based, Human; details: inhibitor 10^-5 M pre-incubated 60 min, then Hdh-TK2-2 for 5 min, western blot
Method: (§3) HEK293 cells were seeded into 6-well plates (0.3 × 10^6 cells/well) and transfected with 3 μg of pcDNA3-HA-Hdh-TKR plasmids or vehicle pcDNA3-HA plasmid as described for the luciferase reporter assays. At 24 h after transfection, the cells were incubated with serum-free DMEM for 6 h at 37°C and then exposed to a PKA inhibitor (H89, 10^-5 M; Sigma-Aldrich) or PKC inhibitor (Gö6983, 10^-5 M; Sigma-Aldrich) for 60 min. After the medium was replace with fresh serum-free DMEM, the cells were exposed to Hdh-TK-2-2 peptide (5×10^-9 or 10^-7 M) or TPA (10^-7 M) for a further 5 min. The methods employed for cell lysate preparation, polyacrylamide gel electrophoresis, protein transfer to nitrocellulose membranes, and membrane washing were from a previous report ([39]). The membranes were incubated with a monoclonal mouse p44/42 MAPK, rabbit phospho-p44/42 MAPK (ERK1/2) (Thr202/Tyr204) (Cell Signaling, Danvers, MA, USA), or mouse GAPDH (Santa Cruz Biotechnology, Santa Cruz, CA, USA) primary antibody at 4°C for 16 h, followed by incubation with goat anti-mouse IgG-HRP or goat anti-rabbit IgG-HRP secondary antibody (Santa Cruz Biotechnology, Santa Cruz, CA, USA) at room temperature for 2 h. […]

[8] = system: Hdh-TKRS-mediated phosphorylation of ERK1/2; assay: Western blotting of ERK1/2 phosphorylation in Hdh-TKRS-transfected HEK293 cells; format: cell-based, Human; details: inhibitor 10^-5 M pre-incubated 60 min, then Hdh-TK2-2 for 5 min, western blot
Method: as §3

[9] = target: Hdh-TKRL (tachykinin receptor, long isoform) (Haliotis discus hannai)
[10] = target: Hdh-TKRS (tachykinin receptor, short isoform) (Haliotis discus hannai)
[11] = Hdh-TKRL-transfected HEK293 cells, n = 3
[12] = Hdh-TKRS-transfected HEK293 cells, n = 3

Molecule: CC(C)[C@H](NC(=O)[C@H](Cc1ccccc1)NC(=O)CNC(=O)[C@H](Cc1ccccc1)NC(=O)[C@H](Cc1c[nH]cn1)NC(=O)[C@H](CCCNC(=N)N)NC(=O)CN)C(=O)NCC(=O)N[C@@H](CO)C(=O)N[C@@H](CCCNC(=N)N)C(N)=O [Hdh-TK2-1] (H-GRHFGFVGSR-NH2)
- EC50 (Hdh-TKRL [1]): 5.2 nM
- EC50 (Hdh-TKRS [2]): 4 nM
- EC50 (Hdh-TKRL [3]): 1100 nM
- EC50 (Hdh-TKRL [4]): 141 nM
- EC50 (Hdh-TKRS [5]): 180 nM
- EC50 (Hdh-TKRS [6]): 3340 nM

Molecule: COc1ccc2c(c1)c(C1=C(c3c[nH]c4ccccc34)C(=O)NC1=O)cn2CCCN(C)C [Gö6983]
- effect of inhibitor on Hdh-TKRL-mediated phosphorylation of ERK1/2 [7]: almost abolished
- effect of inhibitor on Hdh-TKRS-mediated phosphorylation of ERK1/2 [8]: almost abolished

Molecule: APGWamide [abalone APGWamide peptide used as a negative control, reference compound]
- CRE-Luc reporter activity (in words) (Hdh-TKRL [3]; [11]): did not activate
- SRE-Luc reporter activity (in words) (Hdh-TKRL [4]; [11]): did not activate
- CRE-Luc reporter activity (in words) (Hdh-TKRS [5]; [12]): did not activate
- SRE-Luc reporter activity (in words) (Hdh-TKRS [6]; [12]): did not activate

Molecule: O=S(=O)(NCCNC/C=C/c1ccc(Br)cc1)c1cccc2cnccc12 [H89]
- effect of inhibitor on Hdh-TKRL-mediated phosphorylation of ERK1/2 [7]: decreased

Molecule: FGYVGSR-NH2 [Hdh-TK1-1]
- EC50 of intracellular Ca2+ mobilization (aequorin luminescence) in Hdh-TKRL-transfected CHO-K1 cells [9]: 9.4 nM
- EC50 of intracellular Ca2+ mobilization (aequorin luminescence) in Hdh-TKRS-transfected CHO-K1 cells [10]: 14.7 nM

Molecule: TELGFGYVGSR-NH2 [Hdh-TK1-2]
- EC50 of intracellular Ca2+ mobilization (aequorin luminescence) in Hdh-TKRL-transfected CHO-K1 cells [9]: 32 nM
- EC50 of intracellular Ca2+ mobilization (aequorin luminescence) in Hdh-TKRS-transfected CHO-K1 cells [10]: 46 nM

More lines, now with the values ahead:

- EC50 (Hdh-TKRL [1]): 1.1 nM
- EC50 (Hdh-TKRS [2]): 1.7 nM
- EC50 (Hdh-TKRL [3]): 284 nM
- EC50 (Hdh-TKRL [4]): 155 nM
- EC50 (Hdh-TKRS [5]): 15.1 nM
- EC50 (Hdh-TKRS [6]): 171 nM
Molecule: CC(C)[C@H](NC(=O)CNC(=O)[C@H](Cc1c[nH]cn1)NC(=O)[C@H](Cc1ccccc1)NC(=O)CNC(=O)[C@H](Cc1ccccc1)NC(=O)[C@H](Cc1c[nH]cn1)NC(=O)[C@@H]1CCCN1C(=O)[C@@H]1CCC(=O)N1)C(=O)N[C@@H](CCCNC(=N)N)C(N)=O [Hdh-TK1-3] ([pGlu]PHFGFHGVR-NH2)

- EC50 of intracellular Ca2+ mobilization (aequorin luminescence) in Hdh-TKRL-transfected CHO-K1 cells [9]: 1.1 nM
- EC50 of intracellular Ca2+ mobilization (aequorin luminescence) in Hdh-TKRS-transfected CHO-K1 cells [10]: 1.7 nM
B1: Hdh-TK1-3 (peptide)
peptide: [pGlu]PHFGFHGVR-NH2
SMILES: CC(C)[C@H](NC(=O)CNC(=O)[C@H](Cc1c[nH]cn1)NC(=O)[C@H](Cc1ccccc1)NC(=O)CNC(=O)[C@H](Cc1ccccc1)NC(=O)[C@H](Cc1c[nH]cn1)NC(=O)[C@@H]1CCCN1C(=O)[C@@H]1CCC(=O)N1)C(=O)N[C@@H](CCCNC(=N)N)C(N)=O

- EC50 of intracellular Ca2+ mobilization (aequorin luminescence) in Hdh-TKRL-transfected CHO-K1 cells [9]: 5.2 nM
- EC50 of intracellular Ca2+ mobilization (aequorin luminescence) in Hdh-TKRS-transfected CHO-K1 cells [10]: 4 nM
Molecule: GRHFGFVGSR-NH2 [Hdh-TK2-1]

- EC50 of intracellular Ca2+ mobilization (aequorin luminescence) in Hdh-TKRL-transfected CHO-K1 cells [9]: 0.7 nM
- EC50 of intracellular Ca2+ mobilization (aequorin luminescence) in Hdh-TKRS-transfected CHO-K1 cells [10]: 1.2 nM
Molecule: KPHFGFHGSR-NH2 [Hdh-TK2-2]
